tested on: HCT-116; assay: Growth inhibition of human HCT116 cells assessed as cell growth at 10 uM incubated for 48 hrs by sulforhodamine B assay relative to control; format: functional; conditions: HCT-116, 48 h, read-out: Activity

Structure (SMILES)	growth at 10 µM [%]
COc1cc2cc(Oc3ccc(NC(=O)Nc4ccc(C)cc4)cc3)c(C)nc2cc1OC	107

tested on: NCI-H522; assay: Growth inhibition of human NCI-H522 cells assessed as cell growth at 10 uM incubated for 48 hrs by sulforhodamine B assay relative to control; format: functional; conditions: NCI-H522, 48 h, read-out: Activity

Structure (SMILES)	growth at 10 µM [%]
COc1cc2cc(Oc3ccc(NC(=O)Nc4ccc(C)cc4)cc3)c(C)nc2cc1OC	69.9

tested on: DU-145; assay: Growth inhibition of human DU145 cells assessed as cell growth at 10 uM incubated for 48 hrs by sulforhodamine B assay relative to control; format: functional; conditions: DU-145, 48 h, read-out: Activity

Structure (SMILES)	growth at 10 µM [%]
COc1cc2cc(Oc3ccc(NC(=O)Nc4ccc(C)cc4)cc3)c(C)nc2cc1OC	102

tested on: HCC 2998; assay: Growth inhibition of human HCC2998 cells assessed as cell growth at 10 uM incubated for 48 hrs by sulforhodamine B assay relative to control; format: functional; conditions: HCC 2998, 48 h, read-out: Activity

Structure (SMILES)	growth at 10 µM [%]
COc1cc2cc(Oc3ccc(NC(=O)Nc4ccc(C)cc4)cc3)c(C)nc2cc1OC	104

tested on: RPMI-8226; assay: Growth inhibition of human RPMI8226 cells assessed as cell growth at 10 uM incubated for 48 hrs by sulforhodamine B assay relative to control; format: functional; conditions: RPMI-8226, 48 h, read-out: Activity

Structure (SMILES)	growth at 10 µM [%]
COc1cc2cc(Oc3ccc(NC(=O)Nc4ccc(C)cc4)cc3)c(C)nc2cc1OC	101

tested on: CCRF-CEM; assay: Growth inhibition of human CCRF-CEM cells assessed as cell growth at 10 uM incubated for 48 hrs by sulforhodamine B assay relative to control; format: functional; conditions: read-out: Activity

Structure (SMILES)	growth at 10 µM [%]
COc1cc2cc(Oc3ccc(NC(=O)Nc4ccc(C)cc4)cc3)c(C)nc2cc1OC	101

tested on: SNB-75; assay: Growth inhibition of human SNB75 cells assessed as cell growth at 10 uM incubated for 48 hrs by sulforhodamine B assay relative to control; format: functional; conditions: SNB-75, 48 h, read-out: Activity

Structure (SMILES)	growth at 10 µM [%]
COc1cc2cc(Oc3ccc(NC(=O)Nc4ccc(C)cc4)cc3)c(C)nc2cc1OC	56.3

tested on: EKVX; assay: Growth inhibition of human EKVX cells assessed as cell growth at 10 uM incubated for 48 hrs by sulforhodamine B assay relative to control; format: functional; conditions: read-out: Activity

Structure (SMILES)	growth at 10 µM [%]
COc1cc2cc(Oc3ccc(NC(=O)Nc4ccc(C)cc4)cc3)c(C)nc2cc1OC	107

tested on: PC-3; assay: Growth inhibition of human PC3 cells assessed as cell growth at 10 uM incubated for 48 hrs by sulforhodamine B assay relative to control; format: functional; conditions: PC-3, 48 h, read-out: Activity

Structure (SMILES)	growth at 10 µM [%]
COc1cc2cc(Oc3ccc(NC(=O)Nc4ccc(C)cc4)cc3)c(C)nc2cc1OC	94.5

tested on: MDA-MB-231; assay: Growth inhibition of human MDA-MB-231 cells assessed as cell growth at 10 uM incubated for 48 hrs by sulforhodamine B assay relative to control; format: functional; conditions: MDA-MB-231, 48 h, read-out: Activity

Structure (SMILES)	growth at 10 µM [%]
COc1cc2cc(Oc3ccc(NC(=O)Nc4ccc(C)cc4)cc3)c(C)nc2cc1OC	85.6

tested on: SK-MEL-28; assay: Growth inhibition of human SK-MEL-28 cells assessed as cell growth at 10 uM incubated for 48 hrs by sulforhodamine B assay relative to control; format: functional; conditions: SK-MEL-28, 48 h, read-out: Activity

Structure (SMILES)	growth at 10 µM [%]
COc1cc2cc(Oc3ccc(NC(=O)Nc4ccc(C)cc4)cc3)c(C)nc2cc1OC	109

tested on: SR; assay: Growth inhibition of human SR cells assessed as cell growth at 10 uM incubated for 48 hrs by sulforhodamine B assay relative to control; format: functional; conditions: read-out: Activity

Structure (SMILES)	growth at 10 µM [%]
COc1cc2cc(Oc3ccc(NC(=O)Nc4ccc(C)cc4)cc3)c(C)nc2cc1OC	83.1

tested on: HOP-62; assay: Growth inhibition of human HOP62 cells assessed as cell growth at 10 uM incubated for 48 hrs by sulforhodamine B assay relative to control; format: functional; conditions: HOP-62, 48 h, read-out: Activity

Structure (SMILES)	growth at 10 µM [%]
COc1cc2cc(Oc3ccc(NC(=O)Nc4ccc(C)cc4)cc3)c(C)nc2cc1OC	66.9

tested on: MOLT-4; assay: Growth inhibition of human MOLT4 cells assessed as cell growth at 10 uM incubated for 48 hrs by sulforhodamine B assay relative to control; format: functional; conditions: MOLT-4, 48 h, read-out: Activity

Structure (SMILES)	growth at 10 µM [%]
COc1cc2cc(Oc3ccc(NC(=O)Nc4ccc(C)cc4)cc3)c(C)nc2cc1OC	82.4

tested on: Hs-578T; assay: Growth inhibition of human Hs 578T cells assessed as cell growth at 10 uM incubated for 48 hrs by sulforhodamine B assay relative to control; format: functional; conditions: read-out: Activity

Structure (SMILES)	growth at 10 µM [%]
COc1cc2cc(Oc3ccc(NC(=O)Nc4ccc(C)cc4)cc3)c(C)nc2cc1OC	76.5

tested on: BT-549; assay: Growth inhibition of human BT549 cells assessed as cell growth at 10 uM incubated for 48 hrs by sulforhodamine B assay relative to control; format: functional; conditions: BT-549, 48 h, read-out: Activity

Structure (SMILES)	growth at 10 µM [%]
COc1cc2cc(Oc3ccc(NC(=O)Nc4ccc(C)cc4)cc3)c(C)nc2cc1OC	130

tested on: UACC-257; assay: Growth inhibition of human UACC257 cells assessed as cell growth at 10 uM incubated for 48 hrs by sulforhodamine B assay relative to control; format: functional; conditions: UACC-257, 48 h, read-out: Activity

Structure (SMILES)	growth at 10 µM [%]
COc1cc2cc(Oc3ccc(NC(=O)Nc4ccc(C)cc4)cc3)c(C)nc2cc1OC	112

tested on: OVCAR-8; assay: Growth inhibition of human OVCAR8 cells assessed as cell growth at 10 uM incubated for 48 hrs by sulforhodamine B assay relative to control; format: functional; conditions: OVCAR-8, 48 h, read-out: Activity

Structure (SMILES)	growth at 10 µM [%]
COc1cc2cc(Oc3ccc(NC(=O)Nc4ccc(C)cc4)cc3)c(C)nc2cc1OC	87.4

tested on: RXF 393; assay: Growth inhibition of human RXF393 cells assessed as cell growth at 10 uM incubated for 48 hrs by sulforhodamine B assay relative to control; format: functional; conditions: RXF 393, 48 h, read-out: Activity

Structure (SMILES)	growth at 10 µM [%]
COc1cc2cc(Oc3ccc(NC(=O)Nc4ccc(C)cc4)cc3)c(C)nc2cc1OC	82.1

tested on: NCI/ADR-RES; assay: Growth inhibition of human NCI/ADR-RES cells assessed as cell growth at 10 uM incubated for 48 hrs by sulforhodamine B assay relative to control; format: functional; conditions: read-out: Activity

Structure (SMILES)	growth at 10 µM [%]
COc1cc2cc(Oc3ccc(NC(=O)Nc4ccc(C)cc4)cc3)c(C)nc2cc1OC	107

tested on: KM12; assay: Growth inhibition of human KM12 cells assessed as cell growth at 10 uM incubated for 48 hrs by sulforhodamine B assay relative to control; format: functional; conditions: KM12, 48 h, read-out: Activity

Structure (SMILES)	growth at 10 µM [%]
COc1cc2cc(Oc3ccc(NC(=O)Nc4ccc(C)cc4)cc3)c(C)nc2cc1OC	104

tested on: M14; assay: Growth inhibition of human M14 cells assessed as cell growth at 10 uM incubated for 48 hrs by sulforhodamine B assay relative to control; format: functional; conditions: M14, 48 h, read-out: Activity

Structure (SMILES)	growth at 10 µM [%]
COc1cc2cc(Oc3ccc(NC(=O)Nc4ccc(C)cc4)cc3)c(C)nc2cc1OC	124

tested on: SW-620; assay: Growth inhibition of human SW620 cells assessed as cell growth at 10 uM incubated for 48 hrs by sulforhodamine B assay relative to control; format: functional; conditions: SW-620, 48 h, read-out: Activity

Structure (SMILES)	growth at 10 µM [%]
COc1cc2cc(Oc3ccc(NC(=O)Nc4ccc(C)cc4)cc3)c(C)nc2cc1OC	107

tested on: SK-OV-3; assay: Growth inhibition of human SKOV3 cells assessed as cell growth at 10 uM incubated for 48 hrs by sulforhodamine B assay relative to control; format: functional; conditions: SK-OV-3, 48 h, read-out: Activity

Structure (SMILES)	growth at 10 µM [%]
COc1cc2cc(Oc3ccc(NC(=O)Nc4ccc(C)cc4)cc3)c(C)nc2cc1OC	87.8

tested on: SN12C; assay: Growth inhibition of human SN12C cells assessed as cell growth at 10 uM incubated for 48 hrs by sulforhodamine B assay relative to control; format: functional; conditions: read-out: Activity

Structure (SMILES)	growth at 10 µM [%]
COc1cc2cc(Oc3ccc(NC(=O)Nc4ccc(C)cc4)cc3)c(C)nc2cc1OC	93
